This passage reports IC50 and inhibition results from patent US20230265104A1, “NOVEL HETEROCYCLIC COMPOUNDS” (PRISM BIOLAB CO., LTD., priority 2020, published 2023).

The assay has as its system PANC-1 (human pancreatic cancer-derived cell line). Put plainly: MTS assay on Panc-1 (human pancreas carcinoma cell line). Type of assay: cell-based. As to conditions: 144 h; for IC50: PANC-1, MTS method, cell survival 6 days after exposure, 4-parameter logistic fit; for inhibition at 10 µM: read-out: Growth inhibition (%) 10 μM. As for the experimental part:
Experimental Example: MTS Assay on Panc-1 (Human Pancreas Carcinoma Cell Line) cell line name: PANC-1 derived from: human pancreas glandular cancer purchased from: ATCC product code: CRL-1469 proliferation medium: D-MEM+10% FBS culture environment: 37° C., 5% CO2 seeding density: 5.0×10^5 cells/25 cm^2 solvent control substance: DMSO (HYBRI-MAX®, Sigma-Aldrich Corp.) test substance: Example compound (ID-1-ID-13) A DMSO solution of the test substance was prepared by serially diluting (common ratio 2) each test substance with DMSO.
A solvent control substance sample and a test substance sample were exposed to a human pancreatic cancer-derived cell line (PANC-1), and the survival rate of the cell 6 days later was measured by the MTS method. The measurement was performed 3 times and the average thereof was adopted. The survival rate of the cell in each test substance sample was calculated by the following formula 1 with the value at exposure of the solvent control substance sample as 100% survival rate. […]
survival rate (%)=100×absorbance of each test substance sample/absorbance of solvent control substance sample formula 1 Normalized values calculated by the following formula 2 from the absorbances of each sample at 492 nm and 630 nm and the absorbances of the blank were used as the absorbances in the above-mentioned formula 1. […]
normalized value (ABS492 nm-630 nm)=(ABSsa 492 nm-ABSsa 630 nm)−(ABSbl 492 nm-ABSbl 630 nm) ABSsa 492: absorbance of each sample at wavelength 492 nm ABSsa 630: absorbance of each sample at wavelength 630 nm ABSbl 492: absorbance of blank corresponding to each sample at wavelength 492 nm ABSbl 630: absorbance of blank corresponding to each sample at wavelength 630 nm formula 2 […]
The analysis was performed by using nplr package on R (The R Foundation for Statistical Computing) and estimating the logistic regression curve (4-parameter).
A general note: Formazan colour is commonly taken as a measure of viable cells.

As for `CC(C)C[C@H]1ON(C(=O)/C=C/c2ccccn2)[C@H]2CN(C3CCN(C4CCN(C(C)C)CC4)CC3)C(=O)[C@H](CC(C)C)N2C1=O` [ID-40, (3R,6S,9aS)-3,6-diisobutyl-8-(1′-isopropyl-[1,4′-bipiperidin]-4-yl)-1-((E)-3-(pyridin-2-yl)acryloyl)tetrahydropyrazino[2,1-c][1,2,4]oxadiazine-4,7(3H,6H)-dione], the half-inhibitory concentration (IC50) (commonly the concentration that inhibits the measured activity by half) stood at 4 µM. For the same compound, where the note is “PANC-1, MTS, 6 days”, the inhibition (in general, the drop in the measured response relative to a control, in per cent) at 10 µM was 102%.

Turning to `CC(=O)N1CCC(N2CCC(N3C[C@@H]4N(C(=O)/C=C/c5ccccn5)O[C@H](CC(C)C)C(=O)N4[C@@H](CC(C)C)C3=O)CC2)CC1` [ID-41, (3R,6S,9aS)-8-(1′-acetyl-[1,4′-bipiperidin]-4-yl)-3,6-diisobutyl-1-((E)-3-(pyridin-2-yl)acryloyl)tetrahydropyrazino[2,1-c][1,2,4]oxadiazine-4,7(3H,6H)-dione], half-maximal inhibition (IC50) required 6.3 µM. In addition, the inhibition at 10 µM (PANC-1, MTS, 6 days) was found to be 98.5%.

As for `CC(C)C[C@H]1ON(C(=O)/C=C/[C@@H]2CCCN2C)[C@H]2CN(CCC(N)=O)C(=O)[C@H](CC(C)C)N2C1=O` [ID-42, 3-((3R,6S,9aS)-3,6-diisobutyl-1-((E)-3-((S)-1-methylpyrrolidin-2-yl)acryloyl)-4,7-dioxohexahydropyrazino[2,1-c][1,2,4]oxadiazin-8(1H)-yl)propanamide], the inhibition at 10 µM (PANC-1, MTS, 6 days) came to 65.3%. `CC(C)C[C@H]1ON(C(=O)/C=C/[C@H]2CCCN2C)[C@H]2CN(CCC(N)=O)C(=O)[C@H](CC(C)C)N2C1=O` [ID-43, 3-((3R,6S,9aS)-3,6-diisobutyl-1-((E)-3-((R)-1-methylpyrrolidin-2-yl)acryloyl)-4,7-dioxohexahydropyrazino[2,1-c][1,2,4]oxadiazin-8 (1H)-yl)propanamide] returned an IC50 of 9.4 µM. Where the note is “PANC-1, MTS, 6 days”, the inhibition at 10 µM stood at 78.5%. With `CC(C)C[C@H]1ON(C(=O)/C=C/c2ccnn2C)[C@H]2CN(C3CCN(C)CC3)C(=O)[C@H](CC(C)C)N2C1=O` [ID-44, (3R,6S,9aS)-3,6-diisobutyl-1-((E)-3-(1-methyl-1H-pyrazol-5-yl)acryloyl)-8-(1-methylpiperidin-4-yl)tetrahydropyrazino[2,1-c][1,2,4]oxadiazine-4,7(3H,6H)-dione], under “PANC-1, MTS, 6 days”, the inhibition at 10 µM is 94.7%. In the case of `CC(=O)N1CCC(N2C[C@@H]3N(C(=O)/C=C/c4nc5ccccc5s4)O[C@H](CC(C)C)C(=O)N3[C@@H](CC(C)C)C2=O)CC1` [ID-45, (3R,6S,9aS)-8-(1-acetylpiperidin-4-yl)-1-((E)-3-(benzo[d]thiazol-2-yl)acryloyl)-3,6-diisobutyltetrahydropyrazino[2,1-c][1,2,4]oxadiazine-4,7(3H,6H)-dione], half-maximal inhibition (IC50) was put at 0.81 µM. For the same compound, the inhibition at 10 µM (PANC-1, MTS, 6 days) was 101%. The matching figures for `CC(C)C[C@H]1ON(C(=O)/C=C/c2nc3ccccc3o2)[C@H]2CN(C3CCN(C)CC3)C(=O)[C@H](CC(C)C)N2C1=O` [ID-46, (3R, 6S, 9aS)-1-((E)-3-(benzo[d]oxazol-2-yl)acryloyl)-3,6-diisobutyl-8-(1-methylpiperidin-4-yl)tetrahydropyrazino[2,1-c][1,2,4]oxadiazine-4,7(3H,6H)-dione]: 1.4 µM and 99.1%.

As for `CC(C)C[C@H]1ON(C(=O)/C(Cl)=C/c2ccccn2)[C@H]2CN(C3CCN(C)CC3)C(=O)[C@H](CC(C)C)N2C1=O` [ID-47, (3R,6S,9aS)-1-((Z)-2-chloro-3-(pyridin-2-yl)acryloyl)-3,6-diisobutyl-8-(1-methylpiperidin-4-yl)tetrahydropyrazino[2,1-c][1,2,4]oxadiazine-4,7(3H,6H)-dione], the IC50 is 10 µM. The inhibition at 10 µM (PANC-1, MTS, 6 days) turned out to be 66.6%.

Compound `CC(C)C[C@H]1ON(C(=O)/C=C/c2cc(C#N)ccn2)[C@H]2CN(C3CCN(C)CC3)C(=O)[C@H](CC(C)C)N2C1=O` [ID-48, 2-((E)-3-((3R,6S,9aS)-3,6-diisobutyl-8-(1-methylpiperidin-4-yl)-4,7-dioxohexahydropyrazino[2,1-c][1,2,4]oxadiazin-1(6H)-yl)-3-oxoprop-1-en-1-yl)isonicotinonitrile] registered a concentration for half-maximal inhibition (IC50) of 0.58 µM. Also, the inhibition at 10 µM (PANC-1, MTS, 6 days) is 100%. Take `CC(C)C[C@H]1ON(C(=O)/C=C/c2cc3n(n2)CCOC3)[C@H]2CN(C3CCN(C)CC3)C(=O)[C@H](CC(C)C)N2C1=O` [ID-49, (3R,6S,9aS)-1-((E)-3-(6,7-dihydro-4H-pyrazolo[5,1-c][1,4]oxazin-2-yl)acryloyl)-3,6-diisobutyl-8-(1-methylpiperidin-4-yl)tetrahydropyrazino[2,1-c][1,2,4]oxadiazine-4,7 (3H, 6H)-dione]: the inhibition at 10 µM (PANC-1, MTS, 6 days) came out at 74.9%.

Regarding `CC(C)C[C@H]1ON(C(=O)/C=C/c2nc3ccccc3s2)[C@H]2CN(C3CCN(C(=O)c4ncc(F)cn4)CC3)C(=O)[C@H](CC(C)C)N2C1=O` [ID-50, (3R,6S,9aS)-1-((E)-3-(benzo[d]thiazol-2-yl)acryloyl)-8-(1-(5-fluoropyrimidine-2-carbonyl)piperidin-4-yl)-3,6-diisobutyltetrahydropyrazino[2,1-c][1,2,4]oxadiazine-4,7(3H,6H)-dione], the half-inhibitory concentration (IC50) is 0.59 µM. Also, the inhibition at 10 µM (PANC-1, MTS, 6 days) is 101%.

As to `CC(C)C[C@H]1ON(C(=O)/C=C/c2cccc(=O)[nH]2)[C@H]2CN(C3CCN(C)CC3)C(=O)[C@H](CC(C)C)N2C1=O` [ID-51, (3R,6S,9aS)-3,6-diisobutyl-8-(1-methylpiperidin-4-yl)-1-((E)-3-(6-oxo-1,6-dihydropyridin-2-yl)acryloyl)tetrahydropyrazino[2,1-c][1,2,4]oxadiazine-4,7(3H,6H)-dione], the inhibition at 10 µM (PANC-1, MTS, 6 days) is 47.5%. For `CC(C)C[C@H]1ON(C(=O)/C=C/c2nc3cc(F)ccc3s2)[C@H]2CN(C3CCN(C)CC3)C(=O)[C@H](CC(C)C)N2C1=O` [ID-52, (3R,6S,9aS)-1-((E)-3-(5-fluorobenzo[d]thiazol-2-yl)acryloyl)-3,6-diisobutyl-8-(1-methylpiperidin-4-yl)tetrahydropyrazino[2,1-c][1,2,4.]oxadiazine-4,7(3H,6H)-dione], 0.48 µM corresponded to half-maximal inhibition (IC50). Moreover, under “PANC-1, MTS, 6 days”, the inhibition at 10 µM came to 101%.

On to `CC(C)C[C@H]1ON(C(=O)/C=C/c2ncco2)[C@H]2CN(C3CCN(C)CC3)C(=O)[C@H](CC(C)C)N2C1=O` [ID-53, (3R,6S,9aS)-3,6-diisobutyl-8-(1-methylpiperidin-4-yl)-1-((E)-3-(oxazol-2-yl)acryloyl)tetrahydropyrazino[2,1-c] [1,2,4]oxadiazine-4,7(3H,6H)-dione], for which the half-inhibitory concentration (IC50) is 1.2 µM. Further, the inhibition at 10 µM (PANC-1, MTS, 6 days) worked out at 100%. For the compound `CC(C)C[C@H]1ON(C(=O)/C=C/c2cscn2)[C@H]2CN(C3CCN(C)CC3)C(=O)[C@H](CC(C)C)N2C1=O` [ID-54, (3R,6S,9aS)-3,6-diisobutyl-8-(1-methylpiperidin-4-yl)-1-((E)-3-(thiazol-4-yl)acryloyl)tetrahydropyrazino[2,1-c] [1,2,4]oxadiazine-4,7(3H,6H)-dione], the inhibition at 10 µM (PANC-1, MTS, 6 days) worked out at 57%.

`CC(C)C[C@H]1ON(C(=O)/C=C/c2ncc(Cl)cn2)[C@H]2CN(C3CCN(C)CC3)C(=O)[C@H](CC(C)C)N2C1=O` [ID-55, (3R,6S,9aS)-1-((E)-3-(5-chloropyrimidin-2-yl)acryloyl)-3,6-diisobutyl-8-(1-methylpiperidin-4-yl)tetrahydropyrazino[2,1-c][1,2,4]oxadiazine-4,7(3H,6H)-dione] showed a 50% inhibitory concentration (IC50) of 0.46 µM. The inhibition at 10 µM (PANC-1, MTS, 6 days) came to 99.8%. Regarding `CC(C)C[C@H]1ON(C(=O)/C=C/c2csc(N3CCOCC3)n2)[C@H]2CN(C3CCN(C)CC3)C(=O)[C@H](CC(C)C)N2C1=O` [ID-56, (3R,6S,9aS)-3,6-diisobutyl-8-(1-methylpiperidin-4-yl)-1-((E)-3-(2-morpholinothiazol-4-yl)acryloyl)tetrahydropyrazino[2,1-c][1,2,4]oxadiazine-4,7 (3H, 6H)-dione], the inhibition at 10 µM (PANC-1, MTS, 6 days) amounted to 95.3%. In the case of `CC(C)C[C@H]1ON(C(=O)/C=C/c2ccccn2)[C@H]2CN(C3CCN(C)CC3)C(=O)[C@H](CCCCNCc3ccccc3)N2C1=O` [ID-57, (3R,6S,9aS)-6-(4-(benzylamino)butyl)-3-isobutyl-8-(1-methylpiperidin-4-yl)-1-((E)-3-(pyridin-2-yl)acryloyl)tetrahydropyrazino[2,1-c][1,2,4]oxadiazine-4,7(3H,6H)-dione], the half-maximal inhibitory concentration (IC50) is 1 µM. For the same compound, for the setting “PANC-1, MTS, 6 days”, the inhibition at 10 µM was determined as 101%. `CC(C)C[C@H]1C(=O)N(C2CCN(C)CC2)C[C@@H]2N(C(=O)/C=C/c3nc4ccccc4s3)c3ccccc3C(=O)N21` [ID-58, (4S,11aS)-11-((E)-3-(benzo[d]thiazol-2-yl)acryloyl)-4-isobutyl-2-(1-methylpiperidin-4-yl)-1,2,11,11a-tetrahydro-6H-pyrazino[2,1-b]quinazoline-3,6(4H)-dione] returned an IC50 of 0.56 µM. For the same compound, the inhibition at 1 µM (PANC-1, MTS, 6 days, 1 μM, read-out: Growth inhibition (%) 1 μM) turned out to be 78.4%.
